The values below come from publication PMC12192077, “Leveraging Neural ODEs for Population Pharmacokinetics of Dalbavancin in Sparse Clinical Data” (Entropy, 2025).

One data set in a line: clinical. The conditions noted are these: in vivo. An excerpt:
The dataset used in this study was collected from a cohort of 218 patients undergoing Dalbavancin treatment and who underwent therapeutic drug monitoring (TDM) of Dalbavancin at the IRCCS, Azienda Ospedaliero Universitaria di Bologna between April 2021 and December 2024. Dalbavancin is a long-acting antibiotic used for the treatment of skin and soft tissue infections and as a second-line agent in patients with staphylococcal infections, such as bone and joint infections, vascular prosthetic joint infections and endocarditis. At our center, Dalbavancin plasma exposure is optimized by means of TDM, which is the medical practice of measuring drug concentration in plasma in order to guide drug dosing for attaining a pre-defined target of efficacy. Dalbavancin is a semisynthetic lipoglycopeptide derived from the teicoplanin-like antibiotic A-40926, which is an agent naturally produced by the actinomycete Nonomuria spp. […] The long lipophilic side chain in the Dalbavancin molecule serves a dual purpose by both extending the half-life, as well as anchoring the compound to the membrane, which enhances its antimicrobial activity.
The data acquisition process involved recording patient covariates, drug administration details and serial blood sampling for pharmacokinetic analysis. Dalbavancin doses ranged from 350mg to 1500mg , with a total of 703 administrations recorded. Blood samples were obtained at various time points following drug administration, resulting in 669 concentration measurements. Standardized laboratory procedures were followed for quantifying Dalbavancin levels in plasma, ensuring accuracy and consistency across all samples.
To ensure robust model evaluation, we employed a cross-validation approach. Given the dataset size and the need for a balance between the training and validation data, we opted for a 6-fold cross-validation framework. This choice provides a good trade-off between statistical reliability and computational efficiency, allowing each model to be trained and validated on multiple subsets of the data while maintaining a sufficient amount of training data per fold.
Since the compartment models are systems of differential equations, the replacement of these equations with an NN is direct:(2a) dCc/dt=−CcCl/V1−CcQ/V1+CpQ/V2dCp/dt=CcQ/V1−CpQ/V2 (2b) dh(t)/dt=fnn(h(t),t;θ) The differential equation systems (2a) represent a simple two-compartment model with the four parameters that need to be fitted: V1 and V2 are the volumes of the central and peripheral compartments, Cl the clearance, Q the intercompartmental clearance and Cc and Cp the concentrations of the two compartments.
In addition to the main FNN, the model includes an additional parameter, the distribution volume ( VNODE ), which is learned through gradient descent with the whole FNN. […]

For data set [1] the following is noted: in vivo; cited from earlier work.

Like-named read-outs stand apart in the source and are kept apart here.

In the data set “clinical” (human, Cl (clearance), SD), `CN[C@H]1C(=O)N[C@@H]2Cc3ccc(cc3)Oc3cc4cc(c3O[C@@H]3O[C@H](C(=O)O)[C@@H](O)[C@H](O)[C@H]3NC(=O)CCCCCCCCC(C)C)Oc3ccc(cc3Cl)[C@@H](O)[C@@H]3NC(=O)[C@H](NC(=O)[C@@H]4NC(=O)[C@@H](NC2=O)c2cc(cc(O)c2Cl)Oc2cc1ccc2O)c1ccc(O)c(c1)-c1c(O[C@H]2O[C@H](CO)[C@@H](O)[C@H](O)[C@@H]2O)cc(O)cc1[C@@H](C(=O)NCCCN(C)C)NC3=O` [Dalbavancin] showed a clearance of 0.9 mL/min. Also, the “Cl (clearance)” value in “clinical” (human, SD) stood at 0.0367 ± 0.0006 L/h. Also, the “VNODE (distribution volume)” value in the data set “clinical” was determined as 5.7 ± 0.1 L. For the same molecule, the “VNODE,cov (distribution volume)” value in “clinical” (SD) was found to be 5.2 ± 0.8 L. Further, in data set [1], the “Cl (clearance)” value is 0.031 ± 0.004 L/h, the “Q (intercompartmental clearance)” value was 0.038 ± 0.013 L/h, the “V1 (volume of central compartment)” value is 5.9 ± 0.3 L and the “V2 (volume of peripheral compartment)” value is 9.6 ± 1.4 L.
